This is an account of results in patent publication US20090143279A1 (priority 2007, published 2009).

Read-outs that look alike come from different tables or passages of the source.

Test [1] relates to nuOXPHOS transcripts. The test is classed as cell-based, mouse.
Test [2] has as its system reactive oxygen species. The class given is cell-based, mouse.
The test system of test [3] is cellular dehydrogenase activity.
Test [4] concerns C2C12 myotubes.
In test [5] the test system is mitochondrial membrane potential. The test is classed as cell-based, mouse.
Test [6] concerns cytochrome c. The class given is cell-based, mouse.
Sequence of cytochrome c (P62897 whole entry): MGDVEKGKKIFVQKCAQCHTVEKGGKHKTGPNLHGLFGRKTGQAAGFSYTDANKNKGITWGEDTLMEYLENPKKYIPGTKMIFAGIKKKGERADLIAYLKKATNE
Test [7] deals with OXPHOS gene expression. The class given is cell-based, mouse.
Test [8] concerns mtOXPHOS transcripts. The test is classed as cell-based, mouse.
[9] abbreviates: Conc 20 μM, normalized score vs mock-treated (DMSO) wells.
Setting [10] is: Table 4, C2C12 myotubes, 48 h, composite Z-score.
Where [11] appears, read: composite Z-score vs DMSO wells, Conc 20 μM.
[12] abbreviates: normalized composite Z-score vs mock-treated (DMSO) wells, Conc 20 μM.
[13] abbreviates: composite Z-score vs mock-treated (DMSO) wells, Conc 20 μM.
The mark [14] stands for this setting: 10.86 μM, composite Z-score vs DMSO.
Setting [15] is: 20 μM, composite Z-score vs DMSO.
The mark [16] stands for this setting: composite Z-score vs DMSO, Conc 20 μM.

In the case of `O=C1c2ccc(O)cc2OC(c2cc(O)c(O)c(O)c2)C1O` (stereo in doubt) [dihydrorobinetin, reference compound], the “nucOX (composite Z-score)” value in test [1] (setting [9]) is reported as −1.089. Also, the “ROS (composite Z-score)” value in test [2] (setting [9]) is on record as −0.393. Further, the ROS in test [2] (setting [10]) is −0.393. Moreover, the “MTT (composite Z-score)” value in test [3] (setting [9]) is given as −1.259. Also, in test [3] (setting [10]), the MTT is on record as −1.259. For the same molecule, the “Viability (composite Z-score)” value in test [4] (setting [9]) is −1.070. In test [4] (setting [10]), this molecule gave a Viability of −1.070. Besides, in test [5] (setting [9]), the “ΔΨm (composite Z-score)” value is reported as −3.396. In test [5] (Table 4, C2C12 myotubes, 48 h, JC-1, composite Z-score), this molecule returned a ΔΨm of −3.396. The “cyt c (composite Z-score)” value in test [6] (setting [9]) came to 0.082. The “GE-HTS (composite Z-score)” value in test [7] (setting [9]) is listed as −1.192. The “mitoOX (composite Z-score)” value in test [8] (setting [9]) is given as −1.124.

Turning to `C=C(C)C1Cc2c(ccc(C(=O)O)c2O)O1` (centres unmarked) [tubaic acid], the “nucOX (composite Z-score)” value in test [1] (setting [9]) is given as −1.065. The “ROS (composite Z-score)” value in test [2] (setting [9]) turned out to be 0.646. The “MTT (composite Z-score)” value in test [3] (setting [9]) is reported as 0.150. Moreover, the “Viability (composite Z-score)” value in test [4] (setting [9]) was −0.569. For the same molecule, the “ΔΨm (composite Z-score)” value in test [5] (setting [9]) is −0.489. In addition, the “cyt c (composite Z-score)” value in test [6] (setting [9]) was 0.089. In addition, in test [7] (setting [9]), the “GE-HTS (composite Z-score)” value is −0.746. Also, the “mitoOX (composite Z-score)” value in test [8] (setting [9]) came to 0.070.

`CC(=O)N[C@@H](CC(=O)N[C@@H](CCC(=O)O)C(=O)O)C(=O)O` [spaglumic acid]: the nucOX in test [1] (setting [11]) was determined as 0.307. The ROS in test [2] (setting [11]) stood at 0.615. The same molecule came in with an MTT in test [3] (setting [11]) of −0.779. The molecule further gave a Viability in test [4] (setting [11]) of −0.009. Moreover, the ΔΨm in test [5] (setting [11]) is −0.685. For the same molecule, the cyt c in test [6] was determined as 0.600; in test [6] (setting [11]) it was 0.191. The molecule also showed a GE-HTS in test [7] (setting [11]) of 0.120. This molecule also had a mitoOX in test [8] (setting [11]) of −0.284.

With beta-escin, the “nucOX (composite Z-score)” value in test [1] (setting [9]) is −0.883. Moreover, the “ROS (composite Z-score)” value in test [2] (setting [9]) was −3.107. Moreover, the “MTT (composite Z-score)” value in test [3] (setting [9]) is recorded as −5.088. Also, the “Viability (composite Z-score)” value in test [4] (setting [9]) is −5.049. For the same molecule, the “ΔΨm (composite Z-score)” value in test [5] (setting [9]) was −3.416. Besides, in test [6] (setting [9]), the “cyt c (composite Z-score)” value is −5.117. Besides, the “GE-HTS (composite Z-score)” value in test [7] (setting [9]) is −0.914. In addition, the “mitoOX (composite Z-score)” value in test [8] (setting [9]) is listed as −0.745.

Regarding `C[C@@H]1CC[C@H]2[C@](C)(CO)[C@@H](O)CC[C@]2(C)[C@@]12CC[C@@](CO)(CCO)O2` [lagochilin], the “nucOX (composite Z-score)” value in test [1] (setting [9]) is −0.036. In addition, the “ROS (composite Z-score)” value in test [2] (setting [9]) is reported as 0.962. Besides, the “MTT (composite Z-score)” value in test [3] (setting [9]) is −0.238. Also, the “Viability (composite Z-score)” value in test [4] (setting [9]) worked out at 0.043. The “ΔΨm (composite Z-score)” value in test [5] (setting [9]) came to 0.277. Also, the “cyt c (composite Z-score)” value in test [6] (setting [9]) is given as −0.862. Moreover, in test [7] (setting [9]), the “GE-HTS (composite Z-score)” value worked out at 0.002. Also, the “mitoOX (composite Z-score)” value in test [8] (setting [9]) is 0.128.

Molecule `CC1(C)C(=O)CC[C@@]2(C)C1C[C@@H](O)[C@@]1(C)C3=CC(=O)O[C@@H](c4ccoc4)[C@]3(C)CCC21` (some centres unmarked) [dihydro-7-desacetyldeoxygedunin] registered a nucOX in test [1] (setting [12]) of −0.719. Also, the ROS in test [2] (setting [12]) is 0.608. Besides, the MTT in test [3] (setting [12]) was −1.403. In test [4] (setting [12]), this molecule showed a Viability of −0.527. For the same molecule, the ΔΨm in test [5] (setting [12]) is listed as −0.170. In test [6] (setting [12]), this molecule returned a cyt c of 0.599. In test [7] (setting [12]), this molecule showed a GE-HTS of −0.961. This molecule gave a mitoOX in test [8] (setting [12]) of −1.218.

Turning to `CC1(C)C2CC(=O)[C@]3(C)C(CC[C@@]4(C)[C@H](c5ccoc5)OC(=O)[C@H]5O[C@]543)[C@@]2(C)C(=O)C[C@H]1O` (some centres unmarked), in test [1] (setting [12]), the nucOX was −0.866. Besides, the ROS in test [2] (setting [12]) is recorded as 0.122. For the same molecule, the MTT in test [3] (setting [12]) is −1.103. In test [4] (setting [12]), this molecule yielded a Viability of −0.023. The molecule also displayed a ΔΨm in test [5] (setting [12]) of −0.335. This molecule also had a cyt c in test [6] (setting [12]) of 0.113. Further, the GE-HTS in test [7] (setting [12]) is on record as −0.911. This molecule also showed a mitoOX in test [8] (setting [12]) of −0.875.

As to `COC(=O)C[C@H]1C(C)(C)[C@@H](OC(C)=O)[C@@H]2CC3C4CC(=O)O[C@@H](c5ccoc5)[C@]4(C)CCC3[C@@]1(C)C2=O` (some centres unmarked) [dihydrofissinolide], in test [1] (setting [13]), the nucOX is −0.350. For the same molecule, the ROS in test [2] (setting [13]) is on record as 1.029. In test [3] (setting [13]), this molecule had an MTT of −1.189. In test [4] (setting [13]), this molecule yielded a Viability of 0.139. In addition, in test [5] (setting [13]), the ΔΨm came out at 0.196. Further, the cyt c in test [6] (setting [13]) is −0.122. In test [7] (setting [13]), the GE-HTS is reported as −0.253. Further, the mitoOX in test [8] (setting [13]) was 0.041.

Take `CC(C)[N+](C)(CCOC(=O)C1c2ccccc2Oc2ccccc21)C(C)C` [propantheline]: the figures for the nucOX in test [1] (setting [14]) and in test [1] (setting [15]) were 0.104 and 0.254, respectively. Also, the results for the ROS in test [2] (setting [14]) and in test [2] (setting [15]) were 0.589 and 2.062, respectively. The MTT was −1.670 in test [3] (setting [14]) and −1.026 in test [3] (setting [15]). The Viability in test [4] (setting [14]) is given as −0.361; in test [4] (setting [15]) it was 0.142. Further, the ΔΨm in test [5] (setting [14]) was −0.893; in test [5] (setting [15]), −0.082. For the same molecule, the cyt c in test [6] (setting [14]) is listed as −0.615; in test [6] (setting [15]), 0.379. Besides, the GE-HTS was −0.301 in test [7] (setting [14]) and 0.458 in test [7] (setting [15]). The mitoOX was −1.055 in test [8] (setting [14]) and 0.783 in test [8] (setting [15]).

Regarding `CC(C)(OC(=O)c1ccccc1)[C@@H]1Cc2cc3ccc(=O)oc3cc2O1` [felamidin], in test [1] (setting [16]), the nucOX is 0.835. Besides, the ROS in test [2] (setting [16]) came out at 0.710. The molecule further gave an MTT in test [3] (setting [16]) of −0.475. Moreover, the Viability in test [4] (setting [16]) is 0.224. Further, the ΔΨm in test [5] (setting [16]) was determined as 0.600. In test [6] (setting [16]), this molecule returned a cyt c of 0.921. The GE-HTS in test [7] (setting [16]) came out at 0.966. Besides, in test [8] (setting [16]), the mitoOX worked out at 1.050.

`CC(=O)C(=Cc1ccccc1)CC(=O)O` [3-benzylidenyl-levulinic acid]: the “nucOX (composite Z-score)” value in test [1] is recorded as −0.553. For the same molecule, the “ROS (composite Z-score)” value in test [2] is on record as 0.382. The “MTT (composite Z-score)” value in test [3] is given as −0.665. For the same molecule, the “Viability (composite Z-score)” value in test [4] was −0.431. For the same molecule, the “ΔΨm (composite Z-score)” value in test [5] is given as −0.170. In addition, the “cyt c (composite Z-score)” value in test [6] is −0.165. Moreover, in test [7], the “GE-HTS (composite Z-score)” value is recorded as −0.639. Also, in test [8], the “mitoOX (composite Z-score)” value was −0.647.

Molecule `CC(C)c1c(O)ccc2c1CC[C@H]1[C@@](C)(CO)CCC[C@]21C` [19-hydroxytotarol] yielded a nucOX in test [1] (setting [13]) of −0.128. This molecule yielded an ROS in test [2] (setting [13]) of 1.558. In addition, the MTT in test [3] (setting [13]) was determined as 1.198. The same molecule had a Viability in test [4] (setting [13]) of −0.207. The molecule further registered a ΔΨm in test [5] (setting [13]) of 0.453. For the same molecule, the cyt c in test [6] (setting [13]) is given as 1.305. The same molecule yielded a GE-HTS in test [7] (setting [13]) of −0.041. In test [8] (setting [13]), this molecule displayed a mitoOX of 0.086.

The molecule `COc1ccc(-c2coc3c(O)c(OC)ccc3c2=O)cc1` [retusin 7-methyl ether] yielded a nucOX in test [1] (setting [16]) of 0.765. Further, in test [2] (setting [16]), the ROS came to 0.088. The molecule also displayed an MTT in test [3] (setting [16]) of −0.627. For the same molecule, in test [4] (setting [16]), the Viability is reported as −0.245. Further, the ΔΨm in test [5] (setting [16]) is reported as −0.603. In addition, in test [6] (setting [16]), the cyt c is listed as 0.412. Besides, the GE-HTS in test [7] (setting [16]) turned out to be 0.788. Further, the mitoOX in test [8] (setting [16]) is 0.631.

In the case of `COc1ccc2c(c1)OC/C(=C\c1ccc(OC)c(O)c1)C2=O` [sappanone A dimethyl ether], the “nucOX (composite Z-score)” value in test [1] (setting [9]) is listed as 0.495. Besides, in test [2] (setting [9]), the “ROS (composite Z-score)” value is reported as −2.429. The “MTT (composite Z-score)” value in test [3] (setting [9]) is reported as −1.865. In addition, in test [4] (setting [9]), the “Viability (composite Z-score)” value is given as −1.045. Further, in test [5] (setting [9]), the “ΔΨm (composite Z-score)” value is recorded as 0.017. In addition, the “cyt c (composite Z-score)” value in test [6] (setting [9]) was −0.664. In test [7] (setting [9]), the “GE-HTS (composite Z-score)” value was found to be 0.450. For the same molecule, the “mitoOX (composite Z-score)” value in test [8] (setting [9]) amounted to 0.248.
